Where no end group is shown, it is not given here. [ ]: non-standard residue; d: D form.
Key:
[1] = tested on: PPC1 prostate cancer cells; test: T7 phage binding and internalization on cultured PPC1 cells; format: cell-based, human; details: for phage binding to and internalization into PPC1 cells: peptide displayed at C-terminus of T7 phage coat protein, binding at 4° C., internalization at 37° C. with pH 2.5 wash; for effect of trypsin treatment of phage on binding to PPC1 cells: peptide-displaying phage treated with trypsin before cell binding
Protocol: (§1) To measure phage binding, 10^6 cells in binding buffer (DMEM containing 1% BSA) were incubated with 10^9 pfu/ml of T7 phage for 1 hour at 4° C. The cells were washed 4 times with the binding buffer, lysed in LB bacterial growth medium containing 1% NP-40, and titrated. Phage internalization assays used the same procedure, except that the cells were incubated with the phage at 37° C., and that an acidic buffer (500 mM sodium chloride, 0.1 M glycine, 1% BSA, pH 2.5) was used instead of binding buffer in the second wash.
Inhibitors of phage binding and internalization (heparin, chondroitin, glycocalyx removal enzymes, endocytosis inhibitors, free peptides, quantum dots and UV-inactivated phage) were added to the cells 20 minutes prior to incubation with phage. Endocytosis inhibitors used in this study were the following: nystatin (50 μg/ml), genistein (100 μg/ml), chlorpromazine (5 μg/ml), 5-(N-ethyl-N-isopropyl)amiloride (100 μM), wortmannin (10 μM).
M21 melanoma cells were transiently transfected with these constructs using lipofectamine according to manufacturer's instructions (Invitrogen, Carlsbad, Calif.). Protease treatment of phage and qdots. 10^9 phage particles or 50 μl of peptide-coated qdots phage were treated with 50 iu of uPA, 25 μg of crystalline trypsin, 50 iu of thrombin, or 25 μg of collagenase type I (all Sigma, St. Louis, Mo.).

[2] = Stability of methylated iRGD peptides against proteolysis; format: in vitro ADME; details: peptide bond protected by C-methylation or N-methylation
[3] = tested on: orthotopic MIA PaCa-2 human pancreatic carcinoma xenografts; test: In vivo systemic permeability assay with Evans Blue, pancreatic tumor xenografts; parameters: species or system mice; details: 100 nmol (or 100 μg) peptide 5 min after Evans Blue, tissues collected 30 min later
Protocol: FIGS. 5A and 5B show tumor-specific entry of Evans Blue (albumin) into extravascular tumor tissue in iRGD-injected mice. iRGD is SEQ ID NO:3. iRGDD is SEQ ID NO:4. Mice bearing orthotopically transplanted pancreatic or breast cancer xenografts were injected with […] of Evans Blue, followed 5 min later by 100 μg of iRGD peptide in PBS, PBS alone, or a control peptide. Tumors and tissues were collected 30 min. later and examined for dye content. […] About 4 times more dye accumulated in the iRGD-treated tumors than in control tumors. The control peptides included non-CendR RGD peptides.
FIGS. 9A-9D show a tumor-specific entry of Evans Blue into extravascular tumor tissue in iRGD-injected mice. iRGD is SEQ ID NO:3. iRGDD is SEQ ID NO:4. […] (FIGS. 9B to 9D) Quantification of Evans Blue in the pancreatic tumors and tissues. […]
Five min later, the mice received an intravenous injection with 100 μl of PBS with or without iRGD or control peptides at various concentrations. […] For Evans Blue quantification, the dye was extracted from tissues using N,N-dimethylformamide for 24 hours at 37° C. and the dye content was quantified by measuring the absorbance at 600 nm with a spectrophotometer. […] Quantification of the positive area in immunohistochemically stained sections, and total amount of antibodies within the tissues are described elsewhere in this manuscript.

NRP-1 [4] = target: T1, NRP-1 (Homo sapiens, UniProt O14786, E348A/S346A/T349A); test: RPARPAR binding and internalization in M21 melanoma cells with or without NRP-1 expression; format: cell-based; details: triple mutation of VEGF-165 binding site in b1 domain
T1 construct: expressed in transfected cells; host or cells: M21 melanoma cells, transient lipofectamine transfection
Protocol: as §1, with “For biopanning and phage binding studies (Hoffman, J. A. et al., 2004), cultured cells were grown to confluence and harvested with trypsin and mouse organs were dissociated using Medimachine (BD Biosciences, San Jose, Calif.). To” for “To”
(§2) Expression construct of the wild type NRP-1 cDNA in pcDNA3.1(+) was a kind gift of Dr. Michael Klagsbrun. Site directed mutagenesis was used to generate triple mutation of the VEGF-165 binding site in the b1 domain of NRP-1 (S346A-E348A-349A) by replacing […] (SEQ ID NO:29; encoding amino acids SKET) with […] (SEQ ID NO:30; encoding AKAA).
(§3) M21 melanoma cells were transiently transfected with these constructs using lipofectamine according to manufacturer's instructions (Invitrogen, Carlsbad, Calif.). Protease treatment of phage and qdots. […]

NRP-1 [5] = test: as above; format: cell-based; details: M21 cells, which do not express NRP-1
Protocol: as §1, with “For biopanning and phage binding studies (Hoffman, J. A. et al., 2004), cultured cells were grown to confluence and harvested with trypsin and mouse organs were dissociated using Medimachine (BD Biosciences, San Jose, Calif.). To” for “To”
as §2, §3

NRP-1 [6] = target: T2, NRP-1 (Homo sapiens, UniProt O14786); test: Affinity chromatography of PPC-1 tumor extracts on immobilized RPARPAR peptide; format: binding; details: PPC-1 tumor extract; confirmed by immunoblotting
T2 construct: from tissue; host or cells: orthotopic PPC-1 prostate tumor xenografts grown in BALB/c athymic nude mice
Protocol: PPC-1 tumors were lysed in PBS containing 200 mM n-octyl-beta-D-glucopyranoside, followed by incubation with RPARPAR (SEQ ID NO:2)-coated Sulfolink-beads (Pierce, Rockford, Ill.) and elution in lysis buffer containing 2 mM free RPARPAR (SEQ ID NO:2) peptide. Gel fragments excised from silver stained gel of eluted fractions were subjected to MALDI-TOF mass spectrometry at the Burnham Institute for Medical Research Proteomics Resource.
Orthotopic PPC-1 tumors were homgenized in PBS containing 400 mM n-octyl-beta-D-glucopyranoside, 1 mM MgSO4, 1 mM MnCl2, 1 mM CaCl2) and 1 tablet/5 ml of EDTA-free protease inhibitors cocktail (Sigma, St. Louis, Mo.). After 6 hours of extraction on a rotating platform at 4° C., the lysate was cleared by centrifugation (20 minutes at 14,000 rpm in refrigerated microcentrifuge) and loaded to an affinity column prepared by coupling cysteine-tagged RPARPAR (SEQ ID NO:2) peptide to Sulfolink coupling gel according to the manufacturer's instructions (Pierce, Rockford, Ill.). After overnight binding, the column was washed with a column wash buffer containing 200 mM n-octyl-beta-D-glucopyranoside, but otherwise identical to the lysis buffer, followed by elution with 2 mM free RPARPAR (SEQ ID NO:2) peptide in the same buffer. […]

orthotopic 22Rv1 tumors = test: 22Rv1 xenograft treatment with DOX-liposomes; format: in vivo, mice; details: daily i.v. 1 mg DOX/kg + 2 μmol/kg peptide, 17 days, tumor weight
Protocol: (FIGS. 14A and 14B) Nude mice bearing orthotopic 22Rv1 human prostate tumors were intravenously injected with DOX-liposomes (3 mg DOX/kg) followed 5 min later by 100 nmol iRGD or PBS. Tumors and tissues were collected 3 hours later. In (FIG. 14A), the tumors were sectioned and stained with an anti-CD31 antibody. The doxorubicin is represented by the light specs that look like four halos in the left panel. Scale bars=200 μm, n=3. In (FIG. 14B), DOX in the tissues was quantified. […] The tumors were harvested and weighed after 17 days of treatment. The number of mice in each group was 5. One of 3 experiments that gave similar results is shown. (FIG. 14D) TUNEL staining was performed immunohistochemically on tissue sections of the tumor and heart samples from the treatment study, and quantified for positivity. Statistical analyses were performed with Student's r-test in (FIG. 14B), and ANOVA in (FIG. 14C) and (FIG. 14D); error bars, s.e.m.; n.s., not significant; single asterisk, p<0.05; double asterisk, p<0.01; triple asterisk, p<0.001.
Nude mice bearing 2 week-old orthotopic 22Rv1 tumors received daily intravenous injections of DOX-liposomes ([…]) or PBS, combined with 2 μmol/kg iRGD or PBS. The tumors were harvested and weighed after 17 days of treatment. The number of animals in each group was 13. […]

live, unfixed cells = test: Binding and uptake of peptide-functionalized quantum dots by cells; format: cell-based; details: streptavidin qdots coated with biotinylated peptide
Protocol: Biotinylated peptides were used to functionalize the 605ITK streptavidin qdots (Invitrogen, Carlsbad, Calif.) according to the manufacturer's instructions.
Streptavidin ITK-605 quantum dots (Invitrogen, Carlsbad, Calif.) were functionalized with biotinylated peptides by incubation with 100 fold molar excess of peptide followed by removal of free peptide by dialysis.

T2 sequence (O14786 22-923): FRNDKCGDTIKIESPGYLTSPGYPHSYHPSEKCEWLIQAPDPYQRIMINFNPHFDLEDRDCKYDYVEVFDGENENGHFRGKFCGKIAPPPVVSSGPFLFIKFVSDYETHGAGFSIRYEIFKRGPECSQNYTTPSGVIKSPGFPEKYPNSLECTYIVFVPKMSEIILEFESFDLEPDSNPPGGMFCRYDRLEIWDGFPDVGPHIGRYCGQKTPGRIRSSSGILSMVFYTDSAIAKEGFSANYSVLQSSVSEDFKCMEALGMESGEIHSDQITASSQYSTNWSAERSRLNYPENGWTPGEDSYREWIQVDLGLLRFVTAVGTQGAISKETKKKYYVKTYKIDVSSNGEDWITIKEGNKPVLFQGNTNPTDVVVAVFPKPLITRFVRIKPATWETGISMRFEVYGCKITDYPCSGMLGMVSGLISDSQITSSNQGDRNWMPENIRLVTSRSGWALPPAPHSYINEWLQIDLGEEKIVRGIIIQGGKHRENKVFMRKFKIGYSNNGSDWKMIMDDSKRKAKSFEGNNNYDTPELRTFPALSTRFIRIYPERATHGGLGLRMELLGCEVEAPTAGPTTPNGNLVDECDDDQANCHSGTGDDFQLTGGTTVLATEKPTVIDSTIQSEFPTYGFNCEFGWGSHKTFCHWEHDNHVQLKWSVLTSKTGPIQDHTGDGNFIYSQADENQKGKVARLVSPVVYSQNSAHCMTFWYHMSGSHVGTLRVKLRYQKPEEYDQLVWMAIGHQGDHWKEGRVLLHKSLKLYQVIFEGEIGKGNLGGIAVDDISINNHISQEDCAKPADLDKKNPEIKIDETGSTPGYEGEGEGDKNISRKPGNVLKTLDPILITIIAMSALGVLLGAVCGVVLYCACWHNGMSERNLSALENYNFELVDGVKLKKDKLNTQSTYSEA
T1 sequence (O14786 22-923 S346A/E348A/T349A): as the sequence (O14786 22-923) above, with S325A, E327A, T328A counted along it

ATWLPPR [A7R, reference compound]
phage binding to and internalization into PPC1 cells [1]: bound to and were taken up by PPC-1 cells

C(CMe)RGDKGPDC
stability against proteolysis [2]: stable against unwanted proteolysis

CDCRGDCFC [RGD-4C, reference compound]
Evans Blue leakage/accumulation in tumor (vascular permeability effect) [3]: inactive
effect of trypsin treatment of phage on binding to PPC1 cells [1]: no effect

CR(NMe)GDKGPDC
stability against proteolysis [2]: stable against unwanted proteolysis

CRGDC [non-internalizing, non-CendR RGD peptide, reference compound]
effect of trypsin treatment of phage on binding to PPC1 cells [1]: no effect

RPARPAR [prototypic CendR peptide]
binding by M21 cells transfected with NRP-1 binding pocket mutant (NRP-1 [4]): did not confer
binding and internalization by M21 melanoma cells (NRP-1 [5]): do not bind nor internalize
protein eluted from immobilized peptide with free peptide (NRP-1 [6]): 130-kDa protein, identified by MALDI-TOF mass spectroscopy as NRP-1
effect of inhibitors of cell internalization pathways on peptide-mediated internalization ([1]; endocytosis inhibitors added 20 minutes before phage): None of the available inhibitors of the various cell internalization pathways inhibited internalization
effect of unlabeled peptide on binding and uptake of VEGF-C7, enhanced tuftsin or A7R phage by PPC-1 cells ([1]; unlabeled peptide included in the binding buffer): both activities were reduced

RPARPARA
phage binding to and internalization into PPC1 cells [1]: abolished cell binding and internalization
effect of trypsin treatment of phage on binding to PPC1 cells [1]: restored PPC-1 cell binding

TKPPR [enhanced tuftsin, reference compound]
phage binding to and internalization into PPC1 cells [1]: bound to and were taken up by PPC-1 cells

cyclo(-RGDfK-)
anti-tumor effect of DOX-liposomes 1 mg DOX/kg combined with peptide (orthotopic 22Rv1 tumors): failed to enhance the effect of the drug
Evans Blue leakage/accumulation in tumor (vascular permeability effect) [3]: inactive

rparpar ([dR][dP][dA][dR][dP][dA][dR]; also: on quantum dots) [D-rparpar, RPARPAR peptide comprised of D-amino acids, on quantum dots]
binding and uptake of peptide-functionalized quantum dots (live, unfixed cells): greatly reduced ability to trigger uptake of quantum dots

— US11059718B2, “Methods and compositions using peptides and proteins with C-terminal elements” (Sanford Burnham Prebys Medical Discovery Institute, priority 2009, dated 2021)
